# Measurements: ChEMBL document CHEMBL4393693, “Synthesis and Structure-Activity relationship of 1-(5-isoquinolinesulfonyl)piperazine analogues as inhibitors of Mycobacterium tuberculosis IMPDH” (Eur J Med Chem, 2019)
# Assay: Inhibition of recombinant N-terminal His6-tagged Mycobacterium tuberculosis H37Rv IMPDH expressed in Escherichia coli BL21 (DE3) cells assessed as reduction of NAD+ to NADH using IMP and NAD+ as substrate treated 1 min after substrate incubation with enzyme by UV-visible spectrophotometry
smiles,measurement,value
O=C(NCCNS(=O)(=O)c1cccc2cnccc12)C1CCCCC1,IC50,0.5 to 1.5 µM
